Experiments:
Cathepsin B [1] = biological target: T1, Cathepsin B (Homo sapiens, UniProt P07858); experiment: Inhibition of human cathepsin B relative to control
Cathepsin B [2] = biological target: T1, Cathepsin B; experiment: Inhibition of human cathepsin B
[3] = Covalent reversible inhibition of Leishmania cysteine protease B using Z-Phe-Arg-7-amido-4-methylcoumarin as substrate incubated for 2 mins followed by substrate addition by fluorescence assay
Leishmania = experiment: Covalent reversible inhibition of Leishmania cysteine protease B using Z-Phe-Arg-7-amido-4-methylcoumarin as substrate incubated for 2 mins followed by substrate addition by fluorescence assay relative to control; design: concentration or dose not given beside the values

inhibition (INH) (Cathepsin B [1]) [%]	Ki (Cathepsin B [2]) [µM]	Ki [3] [µM]	pKi [3]	inhibition (Leishmania) [%]	Structure (SMILES)
92	> 10	1.5	5.8		Cc1ccc([C@@H](N[C@@H](Cc2ccccc2)C(=O)NC2(C#N)CC2)C(F)(F)F)cc1
		3.23	5.5		COc1ccc([C@H](N[C@@H](Cc2ccccc2)C(=O)NC2(C#N)CC2)C(F)(F)F)cc1
		0.595	6.23		N#CC1(NC(=O)[C@H](Cc2ccccc2)N[C@H](c2ccc(Br)cc2)C(F)(F)F)CC1
74.5	> 10	1.7	5.77		N#CC1(NC(=O)[C@H](Cc2ccccc2)N[C@@H](c2ccccc2)C(F)(F)F)CC1
		> 10	< 5	70	COc1ccc([C@@H](N[C@@H](Cc2ccccc2)C(=O)NC2(C#N)CC2)C(F)(F)F)cc1
> 95	> 10	0.151	6.82		N#CC1(NC(=O)[C@H](Cc2ccccc2)N[C@@H](c2ccc(Br)cc2)C(F)(F)F)CC1
		1.41	5.85		N#CC1(NC(=O)[C@H](Cc2ccccc2)N[C@H](c2ccccc2)C(F)(F)F)CC1
		> 10	< 5	95	COc1ccc([C@H](N[C@H](Cc2ccccc2)C(=O)NC2(C#N)CC2)C(F)(F)F)cc1
		> 10	< 5	88	Cc1ccc([C@@H](N[C@H](Cc2ccccc2)C(=O)NC2(C#N)CC2)C(F)(F)F)cc1
		4.4	5.37		N#CC1(NC(=O)[C@@H](Cc2ccccc2)N[C@@H](c2ccccc2)C(F)(F)F)CC1
		7.65	5.11		N#CC1(NC(=O)[C@@H](Cc2ccccc2)N[C@H](c2ccccc2)C(F)(F)F)CC1
> 95	> 10	0.795	6.1		N#CC1(NC(=O)[C@@H](Cc2ccccc2)N[C@H](c2ccc(Br)cc2)C(F)(F)F)CC1
		> 10	< 5	86	Cc1ccc([C@H](N[C@H](Cc2ccccc2)C(=O)NC2(C#N)CC2)C(F)(F)F)cc1
		> 10	< 5	95	COc1ccc([C@@H](N[C@H](Cc2ccccc2)C(=O)NC2(C#N)CC2)C(F)(F)F)cc1
		> 10	< 5		N#CC1(NC(=O)[C@@H](Cc2ccccc2)N[C@@H](c2ccc(Br)cc2)C(F)(F)F)CC1
		4.07	5.4		Cc1ccc([C@H](N[C@@H](Cc2ccccc2)C(=O)NC2(C#N)CC2)C(F)(F)F)cc1

— ChEMBL document CHEMBL4725295, “Synthesis and matched molecular pair analysis of covalent reversible inhibitors of the cysteine protease CPB” (Bioorg Med Chem Lett, 2020)
